The values that follow come from patent US6987114B1, “Antiviral pyrimidinedione derivatives and process for the preparation thereof” (Samjin Pharmaceutical Co., Ltd, priority 1999, dated 2006).

Data set [1] relates to mock-infected MT-4 cells. Nature of the data set: Cytotoxicity based on viability of mock-infected host cells (MTT method). It is filed as cell-based. How it is done:
(§1) MT-4 cells were suspended in culture media at 2.5×10^5 cells/ml and infected with 1000 CCID50 (50% cell culture infective dose) of HIV. Immediately after virus infection, 100 μl of cell suspension was brought into each well of a flat-bottomed microtitray containing various concentrations of the test compounds. After 4 or 5 days incubation at 37° C., efficacy of the compounds was determined by the MTT method. Cytotoxicity of the compounds was assessed in parallel with their antiviral activity, based on viability of mock-infected host cells as determined by the MTT method.
(In general: Tetrazolium assays rely on reduction of a dye to a coloured formazan, in cell work by metabolically active cells.)

The test system of data set [2] is HIV. Nature of the data set: microbe, parasite or virus in culture. It is filed as cell-based. How it is done:
Anti-HIV activity tests in vitro of the compounds according to the present invention were performed as described in J. Med. Chem, 34, 357, 1991. Inhibition by the compounds of virus-induced cytotoxic effect in MT-4 cells was measured as follows.
as §1

The mark [3] stands for this setting: mock-infected MT-4 cells, MTT method, 4 or 5 days at 37° C.
Where [4] appears, read: HIV-infected MT-4 cells, MTT method, 4 or 5 days at 37° C.
Where [5] appears, read: Human immunodeficiency virus 1, MT4, HIV-infected MT-4 cells, MTT method, 4 or 5 days at 37° C., read-out: ED50 (the source's name).
Where [6] appears, read: Human immunodeficiency virus 1, MT4, read-out: ED50.

≈ marks a conversion by molar mass, not a printed value. Read-outs that look alike come from different tables or passages of the source.

With “1-(2-Naphthalenemethyl)-5-ethyl-6-(3,5-dimethylbenzoyl)-2,4-pyrimidinedione [Example 95]”, the CD50 in data set [1] (setting [3]) was 16.50 µg/mL. For the same compound, the ED50 in data set [2] (setting [4]) stood at 0.013 µg/mL.
In data set [1] (setting [3]), “1-(2-Naphthalenemethyl)-5-ethyl-6-(3,5-dimethylphenoxy)-2,4-pyrimidinedione [Example 93]” returned a CD50 of 83.22 µg/mL. In data set [2] (setting [4]), this compound gave an ED50 of 0.013 µg/mL.
On the same counts, the results for “1-(2-Naphthalenemethyl)-5-ethyl-6-(3,5-dimethylphenyl)thio-2,4-pyrimidinedione [Example 91]” are 1.27 µg/mL and 0.004 µg/mL.
On the same counts, the results for “1-(2-Naphthalenemethyl)-5-isopropyl-6-(3,5-dimethyl-benzoyl)-2,4-pyrimidinedione [Example 96]” are 9.64 µg/mL and 0.014 µg/mL.
On the same counts, the results for “1-(2-Naphthalenemethyl)-5-isopropyl-6-(3,5-dimethyl-phenyl)thio-2,4-pyrimidinedione [Example 92]” are 8.93 µg/mL and 0.013 µg/mL.
In data set [1] (setting [3]), “1-(Benzoxazol-2-ylmethyl)-5-isopropyl-6-(3,5-dimethyl-benzoyl-2,4-pyrimidinedione [Example 150]” had a CD50 of 7.09 µg/mL. Moreover, the ED50 in data set [2] (setting [4]) is 0.0031 µg/mL.
In data set [1], “1-(Phenacyl)-5-ethyl-6-(3,5-dimethylbenzoyl)-2,425 pyrimidinedione [Example 167]” had a CD50 of 43.31 µg/mL. Also, the ED50 in data set [2] (setting [4]) was found to be 0.0569 µg/mL.
Turning to “1-(Phenacyl)-5-ethyl-6-(3,5-dimethylphenoxy)-2,415 pyrimidinedione [Example 165]”, the CD50 in data set [1] was 58.11 µg/mL. The compound also had an ED50 in data set [2] (setting [4]) of more than 58.11 µg/mL.
On the same counts, the results for “1-(Phenacyl)-5-isopropyl-6-(3,5-dimethylbenzoyl)-2,430 pyrimidinedione [Example 168]” are 5.48 µg/mL and 0.0174 µg/mL.
As to “1-(Phenacyl)-5-isopropyl-6-(3,5-dimethylphenoxy)-2,420 pyrimidinedione [Example 166]”, the CD50 in data set [1] was more than 100.00 µg/mL. The compound further gave an ED50 in data set [2] (setting [4]) of 0.7562 µg/mL.
Compound `Cc1cn([C@H]2C[C@H](N=[N+]=[N-])[C@@H](CO)O2)c(=O)[nH]c1=O` [AZT] showed a CD50 in data set [1] (setting [3]) of 0.70 µg/mL. The ED50 in data set [2] (setting [4]) was found to be 0.0015 µg/mL (≈ 0.00561 µM).
Turning to `CCc1c(Sc2cc(C)cc(C)c2)n(CC2CC2)c(=O)[nH]c1=O` [Example 1, 1-(Cyclopropyl)methyl-5-ethyl-6-(3,5-dimethylphenyl)thio-2,4-pyrimidinedione], the melting point fell in the range of 161 to 163 °C. Moreover, the CD50 in data set [1] (setting [3]) was 4.75 µg/mL. In data set [2] (setting [5]), the EC50 stood at 0.0027 µg/mL (≈ 0.00817 µM).
For the compound `Cc1cc(C)cc(Sc2c(C(C)C)c(=O)[nH]c(=O)n2CC2CC2)c1` [Example 2, 1-(Cyclopropyl)methyl-5-isopropyl-6-(3,5-dimethylphenyl)thio-2,4-pyrimidinedione], the CD50 in data set [1] (setting [3]) turned out to be 12.43 µg/mL. In addition, the EC50 in data set [2] (setting [5]) is less than 0.0002 µg/mL.
`CCc1c(Oc2cc(C)cc(C)c2)n(CC2CC2)c(=O)[nH]c1=O` [Example 3, 1-(Cyclopropyl)methyl-5-ethyl-6-(3,5-dimethylphenoxy)-2,4-pyrimidinedione] had a CD50 in data set [1] (setting [3]) of more than 100.00 µg/mL. Moreover, the EC50 in data set [2] (setting [5]) stood at 0.011 µg/mL (≈ 0.035 µM).
In data set [1] (setting [3]), `CCc1c(Sc2cc(C)cc(C)c2)n(CC2CCC2)c(=O)[nH]c1=O` [Example 7, 1-(Cyclobutyl)methyl-5-ethyl-6-(3,5-dimethylphenyl)thio-2,4-pyrimidinedione] yielded a CD50 of 11.73 µg/mL. The EC50 in data set [2] (setting [5]) came to 0.028 µg/mL (≈ 0.0813 µM).
In data set [1] (setting [3]), `Cc1cc(C)cc(Sc2c(C(C)C)c(=O)[nH]c(=O)n2CC2CCC2)c1` [Example 8, 1-(Cyclobutyl)methyl-5-isopropyl-6-(3,5-dimethylphenyl)thio-2,4-pyrimidinedione] returned a CD50 of 5.9 µg/mL. In addition, the EC50 in data set [2] (setting [5]) turned out to be 0.013 µg/mL (≈ 0.0363 µM).
`CCc1c(Oc2cc(C)cc(C)c2)n(CC2CCC2)c(=O)[nH]c1=O` [Example 9, 1-(Cyclobutyl)methyl-5-ethyl-6-(3,5-dimethylphenoxy)-2,4-pyrimidinedione]: the CD50 in data set [1] (setting [3]) was more than 100.00 µg/mL. Besides, the EC50 in data set [2] (setting [5]) came to 0.0756 µg/mL (≈ 0.23 µM).
On the same counts, the results for `Cc1cc(C)cc(Oc2c(C(C)C)c(=O)[nH]c(=O)n2CC2CCC2)c1` [Example 10, 1-(Cyclobutyl)methyl-5-isopropyl-6-(3,5-dimethylphenoxy)-2,4-pyrimidinedione] are 7.8 µg/mL and 0.0147 µg/mL (≈ 0.0429 µM).
`CCc1c(Sc2cc(C)cc(C)c2)n(CC2CCCCC2)c(=O)[nH]c1=O` [Example 13, 1-(Cyclohexyl)methyl-5-ethyl-6-(3,5-dimethylphenyl)thio-2,4-pyrimidinedione] returned a CD50 in data set [1] (setting [3]) of 11.10 µg/mL. For the same compound, the EC50 in data set [2] (setting [6]) is 0.27 µg/mL (≈ 0.725 µM).
On to `Cc1cc(C)cc(Sc2c(C(C)C)c(=O)[nH]c(=O)n2CC2CCCCC2)c1` [Example 14, 1-(Cyclohexyl)methyl-5-isopropyl-6-(3,5-dimethylphenyl)thio-2,4-pyrimidinedione], for which the CD50 in data set [1] (setting [3]) was determined as 6.40 µg/mL. Further, the EC50 in data set [2] (setting [6]) worked out at 0.061 µg/mL (≈ 0.158 µM).
The compound `CCc1c(Oc2cc(C)cc(C)c2)n(CC2CCCCC2)c(=O)[nH]c1=O` [Example 15, 1-(Cyclohexyl)methyl-5-ethyl-6-(3,5-dimethylphenoxy)-2,4-pyrimidinedione] came in with a CD50 in data set [1] (setting [3]) of 9.17 µg/mL. For the same compound, the EC50 in data set [2] (setting [6]) stood at 0.069 µg/mL (≈ 0.194 µM).
With `Cc1cc(C)cc(Oc2c(C(C)C)c(=O)[nH]c(=O)n2CC2CCCCC2)c1` [Example 16, 1-(Cyclohexyl)methyl-5-isopropyl-6-(3,5-dimethylphenoxy)-2,4-pyrimidinedione], the CD50 in data set [1] (setting [3]) amounted to 8.30 µg/mL. In addition, in data set [2] (setting [6]), the EC50 turned out to be 0.065 µg/mL (≈ 0.175 µM).
For `CCc1c(Sc2cc(C)cc(C)c2)n(Cc2ccccc2)c(=O)[nH]c1=O` [Example 19, 1-Benzyl-5-ethyl-6-(3,5-dimethylphenyl)thio-2,4-pyrimidine-dione], the CD50 in data set [1] (setting [3]) is 12.59 µg/mL. Moreover, in data set [2] (setting [5]), the EC50 amounted to 0.015 µg/mL (≈ 0.0409 µM).
With `Cc1cc(C)cc(Sc2c(C(C)C)c(=O)[nH]c(=O)n2Cc2ccccc2)c1` [Example 20, 1-Benzyl-5-isopropyl-6-(3,5-dimethylphenyl)thio-2,4-pyrimidinedione], the CD50 in data set [1] (setting [3]) was 11.30 µg/mL. Also, the EC50 in data set [2] (setting [5]) is 0.012 µg/mL (≈ 0.0315 µM).
Take `CCc1c(Oc2cc(C)cc(C)c2)n(Cc2ccccc2)c(=O)[nH]c1=O` [Example 21, 1-Benzyl-5-ethyl-6-(3,5-dimethylphenoxy)-2,4-pyrimidine-dione]: the CD50 in data set [1] (setting [3]) amounted to 16.58 µg/mL. Besides, the EC50 in data set [2] (setting [5]) was 0.036 µg/mL (≈ 0.103 µM).
On the same counts, the results for `Cc1cc(C)cc(Oc2c(C(C)C)c(=O)[nH]c(=O)n2Cc2ccccc2)c1` [Example 22, 1-Benzyl-5-isopropyl-6-(3,5-dimethylphenoxy)-2,4-pyrimidinedione] are 25.48 µg/mL and 0.015 µg/mL (≈ 0.0412 µM).
`Cc1cc(C)cc(C(=O)c2c(C(C)C)c(=O)[nH]c(=O)n2Cc2ccccn2)c1` [Example 114, 1-(Pyridin-2-2-ylmethyl)-5-isopropyl-6-(3,5-dimethyl-benzoyl)-2,4-pyrimidinedione] displayed a CD50 in data set [1] (setting [3]) of 24.60 µg/mL. Further, the ED50 in data set [2] (setting [4]) was 0.0032 µg/mL (≈ 0.00848 µM).
As to `CCc1c(C(=O)c2cc(C)cc(C)c2)n(Cc2cccc(Br)n2)c(=O)[nH]c1=O` [Example 129, 1-(2-Bromopyridib-6-ylmethyl)-5-ethyl-6-(3,5-dimethyl-benzoyl)-2,4-pyrimidinedione], the CD50 in data set [1] worked out at 7.44 µg/mL. Besides, the ED50 in data set [2] (setting [4]) is 0.010 µg/mL (≈ 0.0226 µM).
`CCc1c(Oc2cc(C)cc(C)c2)n(CC2CO2)c(=O)[nH]c1=O` (stereo not drawn) [Example 137, 1-(2,3-Epoxypropyl)-5-ethyl-6-(3,5-dimethylphenoxy)-2,4-pyrimidinedione]: the CD50 in data set [1] (setting [3]) amounted to 40.50 µg/mL. Besides, the EC50 in data set [2] (setting [6]) was found to be 1.25 µg/mL (≈ 3.95 µM).
`Cc1cc(C)cc(Oc2c(C(C)C)c(=O)[nH]c(=O)n2CC2CO2)c1` (stereo not drawn) [Example 138, 1-(2,3-Epoxypropyl)-5-isopropyl-6-(3,5-dimethylphenoxy)-2,4-pyrimidinedione] displayed a CD50 in data set [1] (setting [3]) of 39.60 µg/mL. Moreover, the EC50 in data set [2] (setting [6]) was determined as 0.34 µg/mL (≈ 1.03 µM).
On the same counts, the results for `CCc1c(C(=O)c2cc(C)cc(C)c2)n(CC2CO2)c(=O)[nH]c1=O` (stereo not drawn) [Example 139, 1-(2,3-Epoxypropyl)-5-ethyl-6-(3,5-dimethylbenzoyl)-2,4-pyrimidinedione] are more than 100.00 µg/mL and 0.34 µg/mL (≈ 1.04 µM).
Consider `Cc1cc(C)cc(C(=O)c2c(C(C)C)c(=O)[nH]c(=O)n2CC2CO2)c1` (stereo not drawn) [Example 140, 1-(2,3-Epoxypropyl)-5-isopropyl-6-(3,5-dimethylbenzoyl)-2,4-pyrimidinedione], for which the CD50 in data set [1] (setting [3]) worked out at 41.90 µg/mL. For the same compound, the EC50 in data set [2] (setting [6]) turned out to be 0.094 µg/mL (≈ 0.275 µM).
On to `CCc1c(Sc2cc(C)cc(C)c2)n(Cc2occc2C(=O)OC)c(=O)[nH]c1=O` [Example 151, 1-(3-Methoxycarbonyl-2-furanylmethyl)-5-ethyl-6-(3,55 dimethylphenyl)thio-2,4-pyrimidinedione], for which the CD50 in data set [1] was 8.67 µg/mL. The ED50 in data set [2] (setting [4]) was 0.015 µg/mL (≈ 0.0362 µM).
As to `CCC(=O)Cn1c(C(=O)c2cc(C)cc(C)c2)c(CC)c(=O)[nH]c1=O` [Example 163, 1-(2-Butanon-1-yl)-5-ethyl-6-(3,5-dimethylbenzoyl) δ 2,4-pyrimidinedione], in data set [1] (setting [3]), the CD50 was 9.31 µg/mL. For the same compound, in data set [2] (setting [4]), the ED50 turned out to be 0.0034 µg/mL (≈ 0.00993 µM).

What is called melting point is the temperature of the solid-liquid transition.
